pIC50: −log10 of the molar value.
Assays:
[1] = test system: HBV (extracellular HBsAg) in HBV-infected PHH; test: Cryopreserved primary human hepatocytes (PHH) HBV infection assay; type: cell-based; conditions: Hepatitis B virus, Hepatocyte, 216 h, 9 days post-compound treatment, extracellular HBsAg by CLIA
Protocol: This assay is used to confirm the anti-HBV effect of the compounds in HBV PHH infection assay. Cryopreserved PHH (BioreclamationIVT, Lot YJM) was thawed at 37° C. and gently transferred into pre-warmed InVitroGRO HT medium (BioreclamationIVT, Cat. S03317). The mixture was centrifuged at 70 relative centrifugal force (RCF) for 3 minutes at RT, and the supernatant was discarded. Pre-warmed InVitroGRO CP medium (BioreclamationIVT, Cat #S03316) was added to the cell pellet to gently re-suspend cells. The cells were seeded at the density of 5.8×10^4 cells per well to collagen I coated 96-well plate (Gibco, Cat. A1142803) with the InVitroGRO CP medium. All plates were incubated at 37° C. with 5% CO2 and 85% humidity.
At 20 hours after plating, the medium was changed to PHH culture medium (Dulbecco's Modified Eagle Medium (DMEM)/F12 (1:1) (Gibco, Cat. 11320-033), 10% fetal bovine serum (Gibco Cat. 10099141), 100 U/mL penicillin, 100 μg/mL streptomycin (Gibco, Cat. 151401-122), 5 ng/mL human epidermal growth factor (Invitrogen Cat. PHG0311L), 20 ng/mL dexamethasone (Sigma, Cat. D4902) and 250 ng/mL human recombinant insulin (Gibco, Cat. 12585-014)). And the cells were incubated at 37° C. with 5% CO2 and 85% humidity for 4 hours. The medium was then changed to pre-warmed PHH culture medium containing 4% polyethylene glycol (PEG) MW8000 (Sigma, Cat. P1458-50ML) and 1% DMSO (Sigma, Cat. D2650). 5.8×10^6 genomic equivalents of HBV were added into the medium.
At 24 hours post-infection, the cells were gently washed with PBS and refreshed with PHH culture medium supplemented with 1% DMSO, and 0.25 mg/mL Matrix gel (Corning, Cat. 356237) at 200 μL per well. All plates were immediately placed in at 37° C. CO2 incubator. 24 hours later, serial dilutions of compounds made with DMSO were further diluted with the same culture medium (PHH culture medium supplemented with 1% DMSO and 0.25 mg/mL Matrix gel as described above) before they were added to the cells to reach desired final compound concentrations and 1% DMSO concentration. The medium containing the compounds were refreshed every three days.
At 9 days post-compound treatment, extracellular HBsAg level were measured with Chemiluminescence Immuno Assay (CLIA) kit (Autobio, HBsAg Quantitative CLIA). Extracellular HBV DNA was extracted by MagNA Pure 96 system (Roche) and then determined by quantitative PCR with the following primers and probe: […]
HBsAg IC50 and HBV DNA IC50 values were derived from the dose-response curve using 4 parameter logistic curve fit method.

[2] = test system: HBV cccDNA (HBeAg level) in HepDES19 cells; test: Engineered HepDES19 primary screen assay (HBeAg as surrogate marker for cccDNA); type: cell-based; conditions: Hepatitis B virus, HepDES19, 120 h, read-out: IC50 (HBeAg level, HepDES19 primary screen assay)
From the text: The assay was employed to screen for novel cccDNA inhibitors. HepDES19 is a cccDNA-producing cell line. In this cell line, HBeAg in the cell culture supernatant as surrogate marker, as HBeAg production depends on cccDNA level and activity. HepDES19 is an engineered cell line which contains a 1.1 unit length HBV genome, and pgRNA transcription from the transgene is controlled by Tetracycline (Tet). In the absence of Tet, pgRNA transcription will be induced, but HBV e antigen (HBeAg) could not be produced from this pgRNA due to very short leader sequence before the HBeAg start codon and the start codon is disrupted. Only after cccDNA is formed, the missing leader sequence and start codon mutation would be restored from the 3′-terminal redundancy of pgRNA, and then HBeAg could be synthesized. Therefore, HBeAg could be used as a surrogate marker for cccDNA (Zhou, T. et al., Antiviral Res.(2006), 72(2), 116-124; Guo, H. et al., J. Virol. (2007), 81(22), 12472-12484).
HepDES19 cells were seeded at 2×10^6 cells per T150 flask and cultured with the culture medium (Dulbecco's Modified Eagle Medium: Nutrient Mixture F-12 [DMEM-F12, Gibco Cat. 11320-82], 10% Fetal Bovine Serum [FBS, Clontech Cat. 631101], 0.1 mM Non-Essential Amino Acids Solution [NEAA, Gibco Cat. 11140-050], 50 μg/mL Penicillin-Streptomycin [PS, Invitrogen Cat. 15140-163], 500 μg/mL Geneticin [G418, Invitrogen Cat. 10131-027]) containing 3 μg/mL Tet (Sigma, Cat. 87128) for 5 days. Cells were then seeded at 4×10^6 cells per T150 in the same culture medium as described above in the absence of Tet for 8 days. Cells were then harvested and frozen at density of 2×10^6 cells per mL. For compound testing, the frozen cells were thawed and seeded into 96-well plates at a density of 6×10^4 cells per well. At 24 hrs after seeding, half log serial dilutions of compounds made with Dimethyl sulfoxide (DMSO, Sigma, Cat. D2650) were further diluted with the same culture medium as described above before they were added to the cells to reach desired final compound concentrations and 1% DMSO concentration. Plates were then incubated at 37° C. for another 5 days before measurement of HBeAg level and cell viability. Intracellular HBeAg level were measured with enzyme-linked immunosorbent assay (ELISA) kit (Shanghai Kehua Diagnostic Medical Products Co., Ltd). Cell viability was assessed using Cell Counting Kit-8 (Donjindo, Cat. CK04-20). IC50 values were derived from the dose-response curve using 4 parameter logistic curve fit method.
The compounds of the present invention were tested for their capacity to inhibit extracellular HBeAg level as described herein.

O=C(O)[C@H]1C[C@@H](OCCOc2ccc(-c3ccc4cccc(Cl)c4n3)cc2)C1 [Example 1, Cis-3-[2-[4-(8-chloro-2-quinolyl)phenoxy]ethoxy]cyclobutanecarboxylic acid]
pIC50 [1]: 7.82 | pIC50 [2]: 8.10

O=C(O)COCCOc1ccc(-c2ccc3cccc(Cl)c3n2)cc1 [Example 2, 2-[2-[4-(8-chloro-2-quinolyl)phenoxy]ethoxy]acetic acid]
pIC50 [1]: 6.01 | pIC50 [2]: 6.63

COc1ccc(-c2ccc3cccc(Cl)c3n2)cc1C(F)(F)F [Example 3, 8-chloro-2-[4-methoxy-3-(trifluoromethyl)phenyl]quinoline]
pIC50 [1]: 4.95 | pIC50 [2]: 6.85

OCCOc1ccc(-c2ccc3cccc(Cl)c3n2)cc1C(F)(F)F [Example 4, 2-[4-(8-chloro-2-quinolyl)-2-(trifluoromethyl)phenoxy]ethanol]
pIC50 [1]: 5.17 | pIC50 [2]: 5.67

O=C(O)[C@H]1C[C@@H](OCCOc2ccc(-c3ccc4cccc(Cl)c4n3)cc2C(F)(F)F)C1 [Example 5, Cis-3-[2-[4-(8-chloro-2-quinolyl)-2-(trifluoromethyl)phenoxy]ethoxy]cyclobutanecarboxylic acid]
pIC50 [1]: 5.53 | pIC50 [2]: 5.41

O=C(O)COCCOc1ccc(-c2ccc3cccc(Cl)c3n2)cc1C(F)(F)F [Example 6, 2-[2-[4-(8-chloro-2-quinolyl)-2-(trifluoromethyl)phenoxy]ethoxy]acetic acid]
pIC50 [1]: 5.08 | pIC50 [2]: 6.27

N#Cc1cc(OCCO[C@H]2C[C@@H](C(=O)O)C2)ccc1-c1ccc2cccc(Cl)c2n1 [Example 7, Cis-3-[2-[4-(8-chloro-2-quinolyl)-3-cyano-phenoxy]ethoxy]cyclobutanecarboxylic acid]
pIC50 [2]: 4.74

OCCOc1ccc(-c2ccc3ccc(C(F)(F)F)cc3n2)cc1 [Example 8, 2-[4-[7-(trifluoromethyl)-2-quinolyl]phenoxy]ethanol]
pIC50 [2]: 4.73

COC(=O)[C@H]1C[C@@H](OCCOc2ccc(-c3ccc4ccc(C(F)(F)F)cc4n3)cc2)C1 [Example 9, Cis-methyl 3-[2-[4-[7-(trifluoromethyl)-2-quinolyl]phenoxy]ethoxy]cyclobutanecarboxylate]
pIC50 [2]: 4.75

O=C(O)c1cc(-c2cccc(Br)c2)nc2cc(C(F)(F)F)ccc12 [Example 10, 2-(3-bromophenyl)-7-(trifluoromethyl)quinoline-4-carboxylic acid]
pIC50 [2]: 4.71

Cc1cc(-c2cccc(Br)c2)nc2cc(C(F)(F)F)ccc12 [Example 11, 2-(3-bromophenyl)-4-methyl-7-(trifluoromethyl)quinoline]
pIC50 [1]: 5.78 | pIC50 [2]: 5.68

O=C(O)C1CC(OCCOc2ccc(-c3cc(C(F)(F)F)c4cccc(Cl)c4n3)cc2)C1 (stereo not shown) [Example 12, 3-[2-[4-[8-chloro-4-(trifluoromethyl)-2-quinolyl]phenoxy]ethoxy]cyclobutanecarboxylic acid]
pIC50 [1]: 5.48 | pIC50 [2]: 6.29

O=C(O)COCCOc1ccc(-c2cc(C(F)(F)F)c3cccc(Cl)c3n2)cc1 [Example 13, 2-[2-[4-[8-chloro-4-(trifluoromethyl)-2-quinolyl]phenoxy]ethoxy]acetic acid]
pIC50 [1]: 5.26 | pIC50 [2]: 5.78

COc1cc(-c2ccc(OCc3cccc(C(=O)O)c3)cc2)nc2c(Cl)cccc12 [Example 14, 3-[[4-(8-chloro-4-methoxy-2-quinolyl)phenoxy]methyl]benzoic acid]
pIC50 [2]: 5.73

COc1cc2cccc(Cl)c2nc1-c1ccc(OCCO[C@H]2C[C@@H](C(=O)O)C2)cc1 [Example 15, Cis-3-[2-[4-(8-chloro-3-methoxy-2-quinolyl)phenoxy]ethoxy]cyclobutanecarboxylic acid]
pIC50 [2]: 5.60

O=C(O)C1CC(OCCOc2cc3c(Cl)ccc(Cl)c3nc2-c2ccc(O)cc2)C1 (stereo not shown) [Example 16, 3-[2-[[5,8-dichloro-2-(4-hydroxyphenyl)-3-quinolyl]oxy]ethoxy]cyclobutanecarboxlic acid]
pIC50 [2]: 5.44
